Experimental data: publication PMC9965875 (Pharmaceutics, 2023)
Like-named read-outs stand apart in the source and are kept apart here.

Experiments:
[1] = test system: Leishmania (L.) infantum promastigotes (strain MHOM/MA/67/ITMAP-263); assay: organism not typed; format: cell-based; conditions: read-out: Anti-Promastigote Activity (IC50)
in vitro = conditions: BALB/c, mouse

SMILES: Clc1ccc2c(NCCCCCCCCCCCCNc3c4c(nc5cc(Cl)ccc35)CCCC4)c3c(nc2c1)CCCC3 [Compound 10.n]
- IC50 [1]: 3.5 ± 0.63 µM
- cytotoxicity at 50 µM (in vitro): 92.5%

SMILES: CC(=O)NCCCCCCCCNc1c2c(nc3ccccc13)CCCC2 [Compound 7.b]
- IC50 [1]: > 100 µM

SMILES: O=CNCCCCCCCCNc1c2c(nc3ccccc13)CCCC2 [Compound 8.f]
- IC50 ([1]; 24 h): 1.55 ± 0.38 µM
- cytotoxicity at 10 µM (in vitro): 91.2%

SMILES: Clc1ccc2c(NCCCCNc3c4c(nc5cc(Cl)ccc35)CCCC4)c3c(nc2c1)CCCC3 [Compound 10.j]
- IC50 [1]: 8.56 ± 1.56 µM
- EC50 (in vitro): 9.02 ± 1.79 µM

SMILES: O=CNCCCCCCNc1c2c(nc3ccccc13)CCCC2 [Compound 8.e]
- IC50 ([1]; 24 h): 3.23 ± 0.41 µM
- cytotoxicity at 10 µM (in vitro): 94.7%

SMILES: O=CNCNc1c2c(nc3ccccc13)CCCC2 [Compound 8.b]
- IC50 ([1]; 24 h): 5.64 ± 0.65 µM
- cytotoxicity at 10 µM (in vitro): 88.1%

SMILES: CC(=O)NCCCCCCNc1c2c(nc3ccccc13)CCCC2 [Compound 7.a]
- IC50 [1]: > 100 µM

SMILES: c1ccc2c(NCCCCCNc3c4c(nc5ccccc35)CCCC4)c3c(nc2c1)CCCC3 [Compound 10.d]
- IC50 ([1]; 24 h): > 50 µM

SMILES: O=CNNc1c2c(nc3ccccc13)CCCC2 [Compound 8.a]
- IC50 ([1]; 24 h): > 50 µM

SMILES: O=CNCCCNc1c2c(nc3ccccc13)CCCC2 [Compound 8.d]
- IC50 ([1]; 24 h): 14.2 ± 0.98 µM
- cytotoxicity at 50 µM (in vitro): 100%

SMILES: c1ccc2c(NCCCCCCCCCCCCNc3c4c(nc5ccccc35)CCCC4)c3c(nc2c1)CCCC3 [Compound 10.g]
- IC50 ([1]; 24 h): 0.37 ± 0.06 µM
- cytotoxicity at 10 µM (in vitro): 99.7%

SMILES: Clc1ccc2c(Cl)c3c(nc2c1)CCCC3 [Compound 5.b]
- IC50 ([1]; 24 h): > 100 µM

SMILES: O=C1C=C(NCCCNc2c3c(nc4cc(Cl)ccc24)CCCC3)C(=O)C=C1NCCCNc1c2c(nc3cc(Cl)ccc13)CCCC2 [Compound 9.c]
- IC50 [1]: > 50 µM

SMILES: CC(=O)NCCCCCCCCCCNc1c2c(nc3cc(Cl)ccc13)CCCC2 [Compound 7.f]
- IC50 ([1]; 24 h): 11.2 ± 0.66 µM
- cytotoxicity at 10 µM (in vitro): 77.5%

SMILES: Clc1ccc2c(NCCNc3c4c(nc5cc(Cl)ccc35)CCCC4)c3c(nc2c1)CCCC3 [Compound 10.h]
- IC50 [1]: 9.5 ± 0.51 µM
- melting point: 89 to 95 °C

SMILES: Clc1ccc2c(NCCCNc3c4c(nc5cc(Cl)ccc35)CCCC4)c3c(nc2c1)CCCC3 [Compound 10.i]
- IC50 [1]: 8.58 ± 0.47 µM
- cytotoxicity at 10 µM (in vitro): 90.4%

SMILES: Clc1ccc2c(NCCCCCCCCCCNc3c4c(nc5cc(Cl)ccc35)CCCC4)c3c(nc2c1)CCCC3 [Compound 10.m]
- IC50 [1]: 1.92 ± 0.21 µM
- cytotoxicity at 10 µM (in vitro): 99%

SMILES: Clc1ccc2c(NCCCCCNc3c4c(nc5cc(Cl)ccc35)CCCC4)c3c(nc2c1)CCCC3 [Compound 10.k]
- IC50 [1]: 5.26 ± 4.89 µM
- cytotoxicity at 10 µM (in vitro): 87.5%

SMILES: CC(=O)NCCCCCCCCNc1c2c(nc3cc(Cl)ccc13)CCCC2 [Compound 7.e]
- IC50 ([1]; 24 h): > 100 µM

SMILES: O=CNCCNc1c2c(nc3ccccc13)CCCC2 [Compound 8.c]
- IC50 ([1]; 24 h): 1.69 ± 0.22 µM
- cytotoxicity at 10 µM (in vitro): 99.5%

SMILES: C[C@@H]1[C@H](O)[C@@H](C)/C=C/C=C/C=C/C=C/C=C/C=C/C=C/[C@H](O[C@@H]2O[C@H](C)[C@@H](O)[C@H](N)[C@@H]2O)C[C@@H]2O[C@](O)(C[C@@H](O)C[C@@H](O)[C@H](O)CC[C@@H](O)C[C@@H](O)CC(=O)O[C@H]1C)C[C@H](O)[C@H]2C(=O)O [Amphotericin B, reference compound]
- IC50 ([1]; 24 h): 0.17 ± 0.09 µM
- EC50 (in vitro): 3.1 ± 0.6 µM

SMILES: CC(=O)NCCCCCCNc1c2c(nc3cc(Cl)ccc13)CCCC2 [Compound 7.d]
- IC50 [1]: > 100 µM

SMILES: Clc1ccc2c(NCCCCCCCCCCCCNc3ccnc4cc(Cl)ccc34)ccnc2c1 [Compound 12, N^1,N^12-bis(7-chloroquinolin-4-yl)dodecane-1,12-diamine]
- IC50 ([1]; 24 h): 0.6 ± 0.11 µM
- EC50 (in vitro): 11.7 ± 3.96 µM

SMILES: Clc1c2c(nc3ccccc13)CCCC2 [Compound 5.a]
- IC50 ([1]; 24 h): > 100 µM

SMILES: O=C1C(Cl)=C(NCCCNc2c3c(nc4ccccc24)CCCC3)C(=O)C(Cl)=C1NCCCNc1c2c(nc3ccccc13)CCCC2 [Compound 9.b]
- IC50 [1]: > 100 µM

SMILES: O=C1C(Cl)=C(NCCCNc2c3c(nc4cc(Cl)ccc24)CCCC3)C(=O)C(Cl)=C1NCCCNc1c2c(nc3cc(Cl)ccc13)CCCC2 [Compound 9.d]
- IC50 [1]: 2.17 ± 0.45 µM

SMILES: c1ccc2c(NCCCCCCCCNc3c4c(nc5ccccc35)CCCC4)c3c(nc2c1)CCCC3 [Compound 10.e]
- IC50 ([1]; 24 h): 2.99 ± 0.98 µM
- cytotoxicity at 10 µM (in vitro): 99.5%

SMILES: c1ccc2c(NCCCCCCCCCCNc3c4c(nc5ccccc35)CCCC4)c3c(nc2c1)CCCC3 [Compound 10.f]
- IC50 ([1]; 24 h): 0.94 ± 0.33 µM
- cytotoxicity at 10 µM (in vitro): 99.5%

SMILES: CC(=O)NCCCCCCCCCCNc1c2c(nc3ccccc13)CCCC2 [Compound 7.c]
- IC50 ([1]; 24 h): > 100 µM
